From article PMC13308190, “Endothelial progenitor cell susceptibility to DNA damaging and DDR-modulating compounds determines endothelial differentiation accuracy” (Stem Cell Research & Therapy, 2026)

Columns and labels:
Type in all cases: cell-based, mouse
[1] = test system: EC d4 (endothelial progenitor cells); assay: Western blot protein expression (densitometry); settings: EC d4 48 h
Method: (§1) Total protein cell extracts were obtained upon sonication in RIPA buffer (EpiShearTM Probe sonicator, Active Motif [La Hulpe, Belgium]). Protein concentrations were determined using the DC Protein Assay (BioRad [Munich, Germany]). Extracts were supplemented with Roti®-Load buffer (Carl Roth GmbH [Karlsruhe, Germany]) followed by heating (95 °C for 5 min). 20 µg of protein was separated by SDS-PAGE and transferred onto nitrocellulose membrane. After blocking (5% non-fat milk in TBS/0.1% Tween 20 or 5% BSA in TBS/0.1% Tween 20) (1 h, RT) membrane was incubated with primary antibodies (1:500–5000; overnight, 4 °C). After washing with TBS/0.1% Tween 20, peroxidase-conjugated secondary antibody (1:2000) was added (2 h, RT) and bands were visualized using ChemiDoxTM Touch imaging system (BioRad, Munich, Germany).

[2] = test system: EC d6 (endothelial-like cells); assay: Western blot protein expression (densitometry); settings: EC d6 24 h
Method: as §1

mESC [3] = assay: Western blot protein expression (densitometry); settings: mESC 24 h
Method: as §1

EC d4 = assay: DNA fiber spreading assay; settings: EC d4 48 h; HU: 5 mM, 1 h
Method: (§2) To analyze DNA replication fork progression, the DNA fiber spreading assay was performed. Briefly, cells were pulse-labeled with 20 µM CldU (20 min, 37 °C, 5% C0_2) and immediately afterwards with 200 µM IdU (20 min, 37 °C, 5% C02). Cell suspension was applied onto glass slides followed by cell lysis (0.5% SDS, 200 mM Tris–HCl, 50 mM EDTA). After incubation (6 min, RT), slides were tilted upwards to stretch the fibers, dried 6 min lying horizontally flat and fixed (5 min, RT) in methanol: acetic acid (3:1). After drying (7 min, lying horizontally flat) slides were stored overnight in 70% ethanol (4 °C). The next day samples were incubated in 100% methanol (5 min, RT) followed by denaturation in 2.5 M HCl (1 h, RT) and blocking (5% BSA in PBS, 1 h, 37 °C). DNA Fibers were stained with rat anti-BrdU (1:40) for CldU detection and mouse anti-BrdU (1:70) for IdU detection (in 0.5% BSA/PBS; 1 h, RT). After washing (0.05% Tween 20 in PBS and PBS) incubation with secondary antibodies anti-rat 488 (1:400) and anti-mouse 555 (1:250) was performed (1 h, RT, 0.5% BSA in PBS). Following washing with 0.05% Tween 20 in PBS and PBS, the slides were mounted with Fluoroshield (Sigma [Steinheim, Germany]). DNA fibers were analyzed microscopically (Olympus BX43 fluorescence microscope [40 objective]). The length of CldU (green) and IdU (red) tract was measured using ImageJ software, analyzing 200 fibers per experimental condition.

EC d6 = assay: DNA fiber spreading assay; settings: EC d6 24 h; HU: 5 mM, 1 h
Method: as §2

mESC [4] = assay: DNA fiber spreading assay; settings: mESC 24 h; HU: 5 mM, 1 h
Method: as §2

Question: How did the CHK1 protein ([1]; Eto lane of blot Fig 5D - B02) turn out when `COc1cc([C@@H]2c3cc4c(cc3[C@@H](O[C@@H]3O[C@@H]5CO[C@@H](C)O[C@H]5[C@H](O)[C@H]3O)[C@H]3COC(=O)[C@H]23)OCO4)cc(OC)c1O` [Eto, etoposide] was run?
Answer: 0.7 Fold of mESC

Question: What about the RAD51 protein ([1]; Eto lane of blot Fig 5D - B02) of the same molecule?
Answer: 1.0 Fold of mESC

Question: What about the p-CHK2 protein ([1]; Eto lane of blot Fig 5D - B02) of the same molecule?
Answer: 0.4 Fold of mESC

Question: And the p-KAP1 protein ([1]; Eto lane of blot Fig 5D - B02)?
Answer: 0.0 Fold of mESC

Question: What about the p-RPA32 protein ([1]; Eto lane of blot Fig 5D - B02) of the same molecule?
Answer: 0.4 Fold of mESC

Question: And the p-p53 protein ([1]; Eto lane of blot Fig 5D - B02)?
Answer: 1.7 Fold of mESC

Question: And the CHK1 protein ([1]; Eto lane of blot Fig 5D - Dox)?
Answer: 1.6 Fold of mESC

Question: And the RAD51 protein ([1]; Eto lane of blot Fig 5D - Dox)?
Answer: 0.1 Fold of mESC

Question: What about the p-CHK2 protein ([1]; Eto lane of blot Fig 5D - Dox) of the same molecule?
Answer: 0.5 Fold of mESC

Question: What about the p-KAP1 protein ([1]; Eto lane of blot Fig 5D - Dox) of the same molecule?
Answer: 0.0 Fold of mESC

Question: And the p-RPA32 protein ([1]; Eto lane of blot Fig 5D - Dox)?
Answer: 0.5 Fold of mESC

Question: And the p-p53 protein ([1]; Eto lane of blot Fig 5D - Dox)?
Answer: 4.8 Fold of mESC

Question: What about the CHK1 protein ([1]; Eto lane of blot Fig 5D - EST) of the same molecule?
Answer: 0.7 Fold of mESC

Question: And the RAD51 protein ([1]; Eto lane of blot Fig 5D - EST)?
Answer: 1.2 Fold of mESC

Question: And the p-CHK2 protein ([1]; Eto lane of blot Fig 5D - EST)?
Answer: 1.2 Fold of mESC

Question: What about the p-KAP1 protein ([1]; Eto lane of blot Fig 5D - EST) of the same molecule?
Answer: 0.0 Fold of mESC

Question: And the p-RPA32 protein ([1]; Eto lane of blot Fig 5D - EST)?
Answer: 0.4 Fold of mESC

Question: And the p-p53 protein ([1]; Eto lane of blot Fig 5D - EST)?
Answer: 3.0 Fold of mESC

Question: What about the CHK1 protein ([2]; Eto lane of blot Fig 5D - B02) of the same molecule?
Answer: 0.37 Fold of mESC

Question: And the RAD51 protein ([2]; Eto lane of blot Fig 5D - B02)?
Answer: 0.38 Fold of mESC

Question: What about the p-CHK2 protein ([2]; Eto lane of blot Fig 5D - B02) of the same molecule?
Answer: 0.04 Fold of mESC

Question: And the p-KAP1 protein ([2]; Eto lane of blot Fig 5D - B02)?
Answer: 0.00 Fold of mESC

Question: What about the p-RPA32 protein ([2]; Eto lane of blot Fig 5D - B02) of the same molecule?
Answer: 0.04 Fold of mESC

Question: And the p-p53 protein ([2]; Eto lane of blot Fig 5D - B02)?
Answer: 1.45 Fold of mESC

Question: And the CHK1 protein ([2]; Eto lane of blot Fig 5D - Dox)?
Answer: 0.6 Fold of mESC

Question: What about the RAD51 protein ([2]; Eto lane of blot Fig 5D - Dox) of the same molecule?
Answer: 0.8 Fold of mESC

Question: What about the p-CHK2 protein ([2]; Eto lane of blot Fig 5D - Dox) of the same molecule?
Answer: 0.2 Fold of mESC

Question: What about the p-KAP1 protein ([2]; Eto lane of blot Fig 5D - Dox) of the same molecule?
Answer: 0.0 Fold of mESC

Question: What about the p-RPA32 protein ([2]; Eto lane of blot Fig 5D - Dox) of the same molecule?
Answer: 0.1 Fold of mESC

Question: What about the p-p53 protein ([2]; Eto lane of blot Fig 5D - Dox) of the same molecule?
Answer: 3.7 Fold of mESC

Question: What about the CHK1 protein ([2]; Eto lane of blot Fig 5D - EST) of the same molecule?
Answer: 0.1 Fold of mESC

Question: And the RAD51 protein ([2]; Eto lane of blot Fig 5D - EST)?
Answer: 0.5 Fold of mESC

Question: What about the p-CHK2 protein ([2]; Eto lane of blot Fig 5D - EST) of the same molecule?
Answer: 0.4 Fold of mESC

Question: And the p-KAP1 protein ([2]; Eto lane of blot Fig 5D - EST)?
Answer: 0.0 Fold of mESC

Question: What about the p-RPA32 protein ([2]; Eto lane of blot Fig 5D - EST) of the same molecule?
Answer: < 0.1 Fold of mESC

Question: What about the p-p53 protein ([2]; Eto lane of blot Fig 5D - EST) of the same molecule?
Answer: 2.0 Fold of mESC

Question: And the CHK1 protein (mESC [3]; Eto lane of blot Fig 5D - B02)?
Answer: 0.9 Fold of mESC

Question: What about the RAD51 protein (mESC [3]; Eto lane of blot Fig 5D - B02) of the same molecule?
Answer: 1.9 Fold of mESC

Question: And the p-CHK2 protein (mESC [3]; Eto lane of blot Fig 5D - B02)?
Answer: 0.8 Fold of mESC

Question: What about the p-KAP1 protein (mESC [3]; Eto lane of blot Fig 5D - B02) of the same molecule?
Answer: 49.01 Fold of mESC

Question: What about the p-RPA32 protein (mESC [3]; Eto lane of blot Fig 5D - B02) of the same molecule?
Answer: 0.7 Fold of mESC

Question: And the p-p53 protein (mESC [3]; Eto lane of blot Fig 5D - B02)?
Answer: 2.1 Fold of mESC

Question: And the CHK1 protein (mESC [3]; Eto lane of blot Fig 5D - Dox)?
Answer: 2.4 Fold of mESC

Question: What about the RAD51 protein (mESC [3]; Eto lane of blot Fig 5D - Dox) of the same molecule?
Answer: 1.9 Fold of mESC

Question: And the p-CHK2 protein (mESC [3]; Eto lane of blot Fig 5D - Dox)?
Answer: 1.6 Fold of mESC

Question: What about the p-KAP1 protein (mESC [3]; Eto lane of blot Fig 5D - Dox) of the same molecule?
Answer: 29.7 Fold of mESC

Question: And the p-RPA32 protein (mESC [3]; Eto lane of blot Fig 5D - Dox)?
Answer: 1.6 Fold of mESC

Question: What about the p-p53 protein (mESC [3]; Eto lane of blot Fig 5D - Dox) of the same molecule?
Answer: 6.9 Fold of mESC

Question: And the CHK1 protein (mESC [3]; Eto lane of blot Fig 5D - EST)?
Answer: 1.3 Fold of mESC

Question: What about the RAD51 protein (mESC [3]; Eto lane of blot Fig 5D - EST) of the same molecule?
Answer: 2.4 Fold of mESC

Question: What about the p-CHK2 protein (mESC [3]; Eto lane of blot Fig 5D - EST) of the same molecule?
Answer: 1.3 Fold of mESC

Question: What about the p-KAP1 protein (mESC [3]; Eto lane of blot Fig 5D - EST) of the same molecule?
Answer: 36.8 Fold of mESC

Question: And the p-RPA32 protein (mESC [3]; Eto lane of blot Fig 5D - EST)?
Answer: 1.0 Fold of mESC

Question: And the p-p53 protein (mESC [3]; Eto lane of blot Fig 5D - EST)?
Answer: 3.7 Fold of mESC

Question: What about the CHK1 protein (mESC [3]; Fig 4H, Eto, Dox 1, B02, EST) of the same molecule?
Answer: 1.0 Fold of mESC

Question: What about the p-ATR protein (mESC [3]; Fig 4H, Eto, Dox 1, B02, EST) of the same molecule?
Answer: 1.6 Fold of mESC

Question: What about the p-CHK1 protein (mESC [3]; Fig 4H, Eto, Dox 1, B02, EST) of the same molecule?
Answer: 2.3 Fold of mESC

Question: What about the p-RPA32 protein (mESC [3]; Fig 4H, Eto, Dox 1, B02, EST) of the same molecule?
Answer: 1.2 Fold of mESC

Question: What about the p-p53 protein (mESC [3]; Fig 4H, Eto, Dox 1, B02, EST) of the same molecule?
Answer: 6.1 Fold of mESC

Question: Which replication fork progression (EC d4) does the source give for `NC(=O)NO` [HU, Hydroxyurea] here?
Answer: decreased replication fork speed

Question: And the replication fork progression (EC d6)?
Answer: decreased replication fork speed

Question: What about the replication fork progression (mESC [4]) of the same molecule?
Answer: decreased replication fork speed
